Source: patent US8017786B2, “Substituted β-phenyl-α-hydroxy-propanoic acid, synthesis method and use thereof” (Northwest University, priority 2006, dated 2011)

Test system: anesthetized rats
Assay: Blood pressure and left ventricular function of anesthetized rats
Format: in vivo, rat
Set-up: contractive pressure, change ratio: unit not given here
Procedure: All data were input into PowerLab/8Sp data acquisition and processing system via RM-6000 multi-channel polygraph, and recorded, analyzed and processed by PowerLab/8Sp.
The abdomen was opened 1.5 cm below xiphoid bone to isolate duodenum, a small incision was formed on the duodenum away from blood vessels by ophthalmic scissors, a catheter was inserted and the incision was fixed by suture for administration. After the end of operation and a further waiting period of 30 min, normal data were recorded once the indexes to be monitored were stable.
Test drugs were duodenally administered via the catheter, and the indexes were monitored 5, 15, 30, 60, 90 and 120 min after the administration. The change ratios of the indexes were calculated in accordance with the following formula, and were used for statistic analysis among groups.

[1] = 9 mg/kg duodenal, 60 min after administration
[2] = 9 mg/kg duodenal, 90 min after administration
[3] = 9 mg/kg duodenal, 120 min after administration
[4] = 9 mg/kg duodenal, before administration
[5] = 18 mg/kg duodenal, 5 min after administration
[6] = 18 mg/kg duodenal, 15 min after administration
[7] = 18 mg/kg duodenal, 30 min after administration
[8] = 18 mg/kg duodenal, 60 min after administration
[9] = 18 mg/kg duodenal, 90 min after administration
[10] = 18 mg/kg duodenal, 120 min after administration
[11] = 18 mg/kg duodenal, before administration
[12] = 18 mg/kg, significant at 15, 30, 60, 90 and 120 min

CC1(C)C2CCC1(C)C(OC(=O)C(O)Cc1ccc(O)c(O)c1)C2 (stereo not drawn) [bornyl salvianate ester, bornyl β-(3,4-dihydroxylphenyl)-α-hydroxylpropionate ester]
contractive pressure, change ratio [1]: −12.63 ± 11.39 | diastolic pressure [1]: 59.10 ± 16.07 mmHg | diastolic pressure, change ratio [1]: −14.30 ± 13.75 | heart rate [1]: 359.61 ± 39.30 beat/min | heart rate, change ratio [1]: −4.52 ± 7.13 | left intraventricular pressure [1]: 119.77 ± 23.09 mmHg | left intraventricular pressure, change ratio [1]: −6.84 ± 8.75 | mean arterial pressure [1]: 77.89 ± 18.11 mmHg | mean arterial pressure, change ratio [1]: −13.46 ± 12.43 | change-rate of left intraventricular pressure MAX [2]: 5113.5 ± 1356.4 mmHg/s | change-rate of left intraventricular pressure MAX, change ratio [2]: −6.4 ± 13.2 | change-rate of left intraventricular pressure, -MAX [2]: −3629.7 ± 1013.3 mm/Hg/s | change-rate of left intraventricular pressure, -MAX, change ratio [2]: −7.2 ± 13.3 | contractive pressure [2]: 120.90 ± 31.83 mmHg | contractive pressure, change ratio [2]: −8.80 ± 16.65 | diastolic pressure [2]: 63.12 ± 19.81 mmHg | diastolic pressure, change ratio [2]: −8.83 ± 17.11 | heart rate [2]: 354.38 ± 62.30 beat/min | heart rate, change ratio [2]: −4.13 ± 17.94 | left intraventricular pressure [2]: 122.40 ± 26.58 mmHg | left intraventricular pressure, change ratio [2]: −4.88 ± 11.37 | mean arterial pressure [2]: 82.38 ± 23.18 mmHg | mean arterial pressure, change ratio [2]: −8.77 ± 16.66 | change-rate of left intraventricular pressure MAX [3]: 4959.8 ± 1399.0 mmHg/s | change-rate of left intraventricular pressure MAX, change ratio [3]: −9.7 ± 11.2 | change-rate of left intraventricular pressure, -MAX [3]: −3541.7 ± 917.7 mm/Hg/s | change-rate of left intraventricular pressure, -MAX, change ratio [3]: −9.2 ± 11.3 | contractive pressure [3]: 120.85 ± 32.13 mmHg | contractive pressure, change ratio [3]: −9.19 ± 14.65 | diastolic pressure [3]: 62.58 ± 22.20 mmHg | diastolic pressure, change ratio [3]: −10.28 ± 17.60 | heart rate [3]: 354.09 ± 47.98 beat/min | heart rate, change ratio [3]: −4.62 ± 12.34 | left intraventricular pressure [3]: 121.85 ± 26.36 mmHg | left intraventricular pressure, change ratio [3]: −5.47 ± 9.76 | mean arterial pressure [3]: 82.00 ± 25.04 mmHg | mean arterial pressure, change ratio [3]: −9.71 ± 15.95 | change-rate of left intraventricular pressure MAX [4]: 5435.8 ± 1200.0 mmHg/s | change-rate of left intraventricular pressure, -MAX [4]: −3881.3 ± 735.6 mm/Hg/s | contractive pressure [4]: 132.26 ± 20.00 mmHg | diastolic pressure [4]: 69.21 ± 15.19 mmHg | heart rate [4]: 373.43 ± 41.28 beat/min | left intraventricular pressure [4]: 128.29 ± 18.38 mmHg | mean arterial pressure [4]: 90.23 ± 16.25 mmHg | mean arterial pressure, systolic pressure and diastolic pressure (in words) (9 mg/kg, significant at 15 and 60 min): exhibited a decrease tendency | dp/dt (in words) (9 mg/kg, significant at 60 and 120 min): exhibited a decrease tendency | left intraventricular pressure (in words) (9 mg/kg, significant at 60 min): exhibited a decrease tendency | change-rate of left intraventricular pressure MAX [5]: 5694.7 ± 1264.7 mmHg/s | change-rate of left intraventricular pressure MAX, change ratio [5]: −0.3 ± 9.3 | change-rate of left intraventricular pressure, -MAX [5]: −4103.4 ± 981.2 mm/Hg/s | change-rate of left intraventricular pressure, -MAX, change ratio [5]: 0.0 ± 7.8 | contractive pressure [5]: 128.34 ± 28.96 mmHg | contractive pressure, change ratio [5]: −0.06 ± 12.42 | diastolic pressure [5]: 72.55 ± 16.58 mmHg | diastolic pressure, change ratio [5]: −1.00 ± 14.79 | heart rate [5]: 358.56 ± 44.88 beat/min | heart rate, change ratio [5]: 0.22 ± 4.94 | left intraventricular pressure [5]: 131.90 ± 18.96 mmHg | left intraventricular pressure, change ratio [5]: −0.01 ± 7.29 | mean arterial pressure [5]: 91.15 ± 20.31 mmHg | mean arterial pressure, change ratio [5]: −0.58 ± 13.53 | change-rate of left intraventricular pressure MAX [6]: 5470.3 ± 1416.7 mmHg/s | change-rate of left intraventricular pressure MAX, change ratio [6]: −4.7 ± 11.8 | change-rate of left intraventricular pressure, -MAX [6]: −3991.9 ± 948.6 mm/Hg/s | change-rate of left intraventricular pressure, -MAX, change ratio [6]: −2.4 ± 9.3 | contractive pressure [6]: 120.90 ± 26.54 mmHg | contractive pressure, change ratio [6]: −5.49 ± 14.53 | diastolic pressure [6]: 68.87 ± 14.57 mmHg | diastolic pressure, change ratio [6]: −5.45 ± 15.82 | heart rate [6]: 356.00 ± 40.82 beat/min | heart rate, change ratio [6]: −0.07 ± 9.93 | left intraventricular pressure [6]: 126.28 ± 18.51 mmHg | left intraventricular pressure, change ratio [6]: −4.15 ± 8.95 | mean arterial pressure [6]: 86.21 ± 18.29 mmHg | mean arterial pressure, change ratio [6]: −5.52 ± 14.99 | change-rate of left intraventricular pressure MAX [7]: 5186.9 ± 1177.3 mmHg/s | change-rate of left intraventricular pressure MAX, change ratio [7]: −8.9 ± 11.5 | change-rate of left intraventricular pressure, -MAX [7]: −3923.8 ± 879.8 mm/Hg/s | change-rate of left intraventricular pressure, -MAX, change ratio [7]: −3.9 ± 8.2 | contractive pressure [7]: 117.76 ± 22.90 mmHg | contractive pressure, change ratio [7]: −7.74 ± 12.22 | diastolic pressure [7]: 66.68 ± 11.95 mmHg | diastolic pressure, change ratio [7]: −7.68 ± 16.90 | heart rate [7]: 348.07 ± 39.21 beat/min | heart rate, change ratio [7]: −2.01 ± 12.45 | left intraventricular pressure [7]: 124.81 ± 18.94 mmHg | left intraventricular pressure, change ratio [7]: −5.46 ± 7.09 | mean arterial pressure [7]: 83.71 ± 15.31 mmHg | mean arterial pressure, change ratio [7]: −7.79 ± 14.45 | change-rate of left intraventricular pressure MAX [8]: 4905.3 ± 1047.7 mmHg/s | change-rate of left intraventricular pressure MAX, change ratio [8]: −12.4 ± 18.7 | change-rate of left intraventricular pressure, -MAX [8]: −3744.3 ± 851.5 mm/Hg/s | change-rate of left intraventricular pressure, -MAX, change ratio [8]: −7.9 ± 14.0 | contractive pressure [8]: 106.97 ± 32.22 mmHg | contractive pressure, change ratio [8]: −16.34 ± 19.90 | diastolic pressure [8]: 60.98 ± 16.13 mmHg | diastolic pressure, change ratio [8]: −15.66 ± 21.14 | heart rate [8]: 357.22 ± 47.10 beat/min | heart rate, change ratio [8]: 0.39 ± 13.05 | left intraventricular pressure [8]: 120.67 ± 23.43 mmHg | left intraventricular pressure, change ratio [8]: −8.71 ± 11.64 | mean arterial pressure [8]: 76.31 ± 21.36 mmHg | mean arterial pressure, change ratio [8]: −16.01 ± 20.44 | change-rate of left intraventricular pressure MAX [9]: 4676.5 ± 941.1 mmHg/s | change-rate of left intraventricular pressure MAX, change ratio [9]: −16.7 ± 15.5 | change-rate of left intraventricular pressure, -MAX [9]: −3659.3 ± 806.3 mm/Hg/s | change-rate of left intraventricular pressure, -MAX, change ratio [9]: −9.2 ± 16.9 | contractive pressure [9]: 104.23 ± 32.16 mmHg | contractive pressure, change ratio [9]: −18.68 ± 18.21 | diastolic pressure [9]: 60.29 ± 15.88 mmHg | diastolic pressure, change ratio [9]: −16.74 ± 18.37 | heart rate [9]: 355.33 ± 9.61 beat/min | heart rate, change ratio [9]: −0.44 ± 6.91 | left intraventricular pressure [9]: 117.91 ± 22.68 mmHg | left intraventricular pressure, change ratio [9]: −10.81 ± 11.60 | mean arterial pressure [9]: 74.94 ± 21.07 mmHg | mean arterial pressure, change ratio [9]: −17.64 ± 18.17 | change-rate of left intraventricular pressure MAX [10]: 5012.6 ± 777.5 mmHg/s | change-rate of left intraventricular pressure MAX, change ratio [10]: −10.9 ± 12.4 | change-rate of left intraventricular pressure, -MAX [10]: −3692.1 ± 863.3 mm/Hg/s | change-rate of left intraventricular pressure, -MAX, change ratio [10]: −8.8 ± 16.9 | contractive pressure [10]: 113.34 ± 24.47 mmHg | contractive pressure, change ratio [10]: −10.88 ± 16.04 | diastolic pressure [10]: 61.54 ± 13.73 mmHg | diastolic pressure, change ratio [10]: −14.64 ± 19.58 | heart rate [10]: 357.68 ± 53.26 beat/min | heart rate, change ratio [10]: 0.28 ± 12.04 | left intraventricular pressure [10]: 119.85 ± 22.26 mmHg | left intraventricular pressure, change ratio [10]: −9.13 ± 13.16 | mean arterial pressure [10]: 78.81 ± 17.04 mmHg | mean arterial pressure, change ratio [10]: −12.96 ± 17.66 | change-rate of left intraventricular pressure MAX [11]: 5695.0 ± 1086.8 mmHg/s | change-rate of left intraventricular pressure, -MAX [11]: −4092.0 ± 905.4 mm/Hg/s | contractive pressure [11]: 128.25 ± 23.86 mmHg | diastolic pressure [11]: 73.04 ± 11.87 mmHg | heart rate [11]: 357.28 ± 36.29 beat/min | left intraventricular pressure [11]: 131.93 ± 16.79 mmHg | mean arterial pressure [11]: 91.44 ± 15.44 mmHg | dp/dt (in words) [12]: significantly decreased | left intraventricular pressure (in words) [12]: significantly decreased | mean arterial pressure, systolic pressure and diastolic pressure (in words) (18 mg/kg, significant at 15, 60, 90 and 120 min): significantly decreased
